Earlier results in paper PMC8050614 (Journal of bone and mineral research : the official journal …, 2019).

Tests used:
young wild-type mice = details: 8 weeks of treatment
wild-type mice = details: injection at 50 nmol/kg

## NCCCC(O)(P(=O)(O)O)P(=O)(O)O [alendronate]
Young wild-type mice
  osteoclast size and/or number: increase
  serum CTX1: decrease

## hPTH(1–34)NH2
wild-type mice
  hypercalcemic response: frank hypercalcemic response
